# Data taken from publication PMC9516332 (Frontiers in Oncology, 2022).
# What was measured:
# Test in all cases: Kinase panel profiling at 1 µmol/L (MSA or IMAP), percentage inhibition
# Assay type in all cases: biochemical
# [1] = target: T1, panel of 255 wild-type kinases (Homo sapiens, UniProt Q9UQB9); conditions: AurC kinase assay; 1 µmol/L single concentration; read-out: %-inhibition AurC
# T1 sequence (Q9UQB9 1-309): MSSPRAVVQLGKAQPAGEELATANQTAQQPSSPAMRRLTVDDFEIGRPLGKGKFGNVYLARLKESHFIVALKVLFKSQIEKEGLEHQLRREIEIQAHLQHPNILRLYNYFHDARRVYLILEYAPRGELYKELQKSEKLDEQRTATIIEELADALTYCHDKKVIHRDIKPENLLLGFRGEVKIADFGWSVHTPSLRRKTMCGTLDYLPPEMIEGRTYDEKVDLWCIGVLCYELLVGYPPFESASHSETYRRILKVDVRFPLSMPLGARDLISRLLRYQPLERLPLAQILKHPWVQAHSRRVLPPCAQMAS
# [2] = target: T2, panel of 255 wild-type kinases (Homo sapiens, UniProt Q8NE63); conditions: kinase HIPK4; 1 µmol/L single concentration; read-out: %-inhibition at 1 µmol/L, HIPK4
# T2 sequence (Q8NE63 1-616): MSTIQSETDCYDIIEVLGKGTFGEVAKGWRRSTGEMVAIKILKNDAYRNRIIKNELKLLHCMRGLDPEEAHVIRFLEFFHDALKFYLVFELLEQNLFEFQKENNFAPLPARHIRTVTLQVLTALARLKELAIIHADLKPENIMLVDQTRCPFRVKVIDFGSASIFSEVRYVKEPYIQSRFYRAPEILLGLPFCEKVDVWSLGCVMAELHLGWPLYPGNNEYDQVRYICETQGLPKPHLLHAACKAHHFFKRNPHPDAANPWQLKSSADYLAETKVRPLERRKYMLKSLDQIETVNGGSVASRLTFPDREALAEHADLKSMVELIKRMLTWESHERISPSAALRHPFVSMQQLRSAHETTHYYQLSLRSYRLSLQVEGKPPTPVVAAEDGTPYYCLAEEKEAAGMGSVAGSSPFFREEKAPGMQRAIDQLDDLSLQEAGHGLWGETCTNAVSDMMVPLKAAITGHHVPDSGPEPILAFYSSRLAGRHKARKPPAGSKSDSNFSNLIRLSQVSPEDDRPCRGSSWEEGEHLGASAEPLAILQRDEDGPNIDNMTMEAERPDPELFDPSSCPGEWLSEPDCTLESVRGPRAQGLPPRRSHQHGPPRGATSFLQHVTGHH
# [3] = target: panel of 255 wild-type kinases (Homo sapiens, UniProt Q9NYY3); conditions: kinase PLK2; 1 µmol/L single concentration; read-out: %-inhibition at 1 µmol/L, PLK2
# [4] = target: panel of 255 wild-type kinases (Homo sapiens, UniProt P68400); conditions: kinase CK2α1/β; 1 µmol/L single concentration; read-out: %-inhibition at 1 µmol/L, CK2α1/β
# [5] = target: T3, panel of 255 wild-type kinases (Homo sapiens, UniProt Q92630); conditions: kinase DYRK2; 1 µmol/L single concentration; read-out: %-inhibition at 1 µmol/L, DYRK2
# T3 sequence (Q92630 1-601): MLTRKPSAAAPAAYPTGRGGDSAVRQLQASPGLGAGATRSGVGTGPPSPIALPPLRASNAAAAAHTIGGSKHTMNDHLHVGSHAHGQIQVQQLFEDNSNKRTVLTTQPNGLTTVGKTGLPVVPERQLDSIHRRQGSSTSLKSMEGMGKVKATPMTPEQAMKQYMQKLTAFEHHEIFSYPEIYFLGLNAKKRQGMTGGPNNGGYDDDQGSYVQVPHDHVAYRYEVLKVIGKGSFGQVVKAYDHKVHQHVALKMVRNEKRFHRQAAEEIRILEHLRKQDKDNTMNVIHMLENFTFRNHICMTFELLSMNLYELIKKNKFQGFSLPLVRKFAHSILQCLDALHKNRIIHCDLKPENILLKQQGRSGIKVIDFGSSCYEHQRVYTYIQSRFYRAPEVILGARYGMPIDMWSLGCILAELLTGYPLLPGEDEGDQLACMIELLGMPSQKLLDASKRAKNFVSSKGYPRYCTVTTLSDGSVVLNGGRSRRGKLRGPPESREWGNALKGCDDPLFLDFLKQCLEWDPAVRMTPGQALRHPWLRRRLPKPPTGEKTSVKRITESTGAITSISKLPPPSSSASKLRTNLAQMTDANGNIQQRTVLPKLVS
# [6] = target: T4, panel of 255 wild-type kinases (Homo sapiens, UniProt O00418); conditions: kinase EEF2K; 1 µmol/L single concentration; read-out: %-inhibition at 1 µmol/L, EEF2K
# T4 sequence (O00418 1-725): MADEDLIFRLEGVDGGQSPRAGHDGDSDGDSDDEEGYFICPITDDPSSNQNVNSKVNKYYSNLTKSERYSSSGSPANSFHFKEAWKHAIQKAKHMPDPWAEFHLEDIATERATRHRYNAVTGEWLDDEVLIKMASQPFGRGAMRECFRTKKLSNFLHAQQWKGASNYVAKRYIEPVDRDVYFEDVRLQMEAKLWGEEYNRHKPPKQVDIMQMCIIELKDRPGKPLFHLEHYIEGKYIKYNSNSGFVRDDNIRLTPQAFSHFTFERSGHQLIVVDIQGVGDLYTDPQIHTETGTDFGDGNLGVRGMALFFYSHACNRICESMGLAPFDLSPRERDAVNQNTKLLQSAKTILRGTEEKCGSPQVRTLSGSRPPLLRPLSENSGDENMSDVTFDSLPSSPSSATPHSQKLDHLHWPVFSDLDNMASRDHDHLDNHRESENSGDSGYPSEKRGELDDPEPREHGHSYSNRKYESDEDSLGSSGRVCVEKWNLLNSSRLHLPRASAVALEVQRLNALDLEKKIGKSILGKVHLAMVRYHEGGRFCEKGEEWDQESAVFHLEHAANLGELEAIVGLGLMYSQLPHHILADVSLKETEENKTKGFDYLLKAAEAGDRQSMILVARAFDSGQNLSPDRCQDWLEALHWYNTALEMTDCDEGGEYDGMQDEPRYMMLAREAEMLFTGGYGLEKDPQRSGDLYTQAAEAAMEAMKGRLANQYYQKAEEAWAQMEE
# [7] = target: panel of 255 wild-type kinases (Homo sapiens, UniProt Q9H4B4); conditions: kinase PLK3; 1 µmol/L single concentration; read-out: %-inhibition at 1 µmol/L, PLK3
# [8] = target: panel of 255 wild-type kinases (Homo sapiens, UniProt P14616); conditions: kinase IRR; 1 µmol/L single concentration; read-out: %-inhibition at 1 µmol/L, IRR
SMILES,inhibition at 1 µM [1] [%],inhibition at 1 µM [2] [%],inhibition at 1 µM [3] [%],inhibition at 1 µM [4] [%],inhibition at 1 µM [5] [%],inhibition at 1 µM [6] [%],inhibition at 1 µM [7] [%],inhibition at 1 µM [8] [%]
CCn1c(=O)c(-c2cc(NC(=O)Nc3ccccc3)c(F)cc2Br)cc2cnc(NC)cc21 [ripretinib],0.523,98,6,1,4.57,-2,4,4.5
COc1ccc(CN2C3CC2CN(c2ccc(-c4cc(OCC(C)(C)O)cn5ncc(C#N)c45)cn2)C3)cn1 [selpercatinib],80,21,4,-1.82,66,-1.54,-1.64,3
Cn1cnc2c(F)c(Nc3ccc(Br)cc3Cl)c(C(=O)NOCCO)cc21 [selumetinib],-0.456,10,2.78,-5,-2.7,2.4,0.774,2.15
Cc1cc(Nc2ncnc3ccc(NC4=NC(C)(C)CO4)cc23)ccc1Oc1ccn2ncnc2c1 [tucatinib],-5.26,21,7,-4,8.45,-2.79,1.59,3
C=CC(=O)N1CCC([C@@H]2CCNc3c(C(N)=O)c(-c4ccc(Oc5ccccc5)cc4)nn32)CC1 [zanubrutinib],-0.855,7,0.329,-2,13,0.514,-4.39,2.69
